From patent US20080234331A1, “Synergistic Insecticidal Mixtures for the Treatment of Seed” (Bayer CropScience AG, priority 2005, published 2008)

System: Onions cv. Vaquero
Experiment: Onion yield after seed treatment with insecticidal active substances
Assay type: in vivo
Conditions: for Yield in % relative to the insecticide-untreated control 1: onion seed cv. Vaquero pretreated with thiram 2 g ai/kg and carbendazim 1 g ai/kg, seed treatment, total application rate 0.18 mg ai/seed (mixture 0.09 + 0.09); for growth-promoting effect with regard to the yield (in words): onion seed treatment, same total application rate
Method: Onions cv. Vaquero from the Dutch company Nunhems were pretreated uniformly with the fungicidal active substances thiram (2 g ai/kg) and carbendazim (1 g ai/kg) by customary methods. Thereafter, the seed was treated as follows, using insecticidal active substances: • 1. control, no insecticides • 2. Poncho WS 70 (clothianidin) at 0.18 mg ai/seed • 3. Gaucho WS 70 (imidacloprid) at 0.18 mg ai/seed • 4. clothianidin+imidacloprid at 0.09+0.09 mg ai/seed

Structure (SMILES) | Yield in % relative to the insecticide-untreated control 1 | growth-promoting effect with regard to the yield (in words)
CN/C(=N\[N+](=O)[O-])NCc1cnc(Cl)s1 [clothianidin] | 137% | growth-promoting effect
O=[N+]([O-])/N=C1\NCCN1Cc1ccc(Cl)nc1 [imidacloprid] | 109% | growth-promoting effect
